Data published in PMC12505902, “Inhibitors of trehalose-6-phosphate synthase activity in fungal pathogens compromise thermal tolerance pathways” (mBio, 2025).

Tested on: C. neoformans H99
Experiment: Epsilometer test (E-test) with fluconazole strips
Type: cell-based
Settings: YPD plates with 4456dh, fluconazole E-test strip, 37°C, 72 h, dose-dependent
Method: Inhibitors of Tps1 may work synergistically with known antifungal drugs. In C. glabrata, the trehalose biosynthesis mutant, tps2Δ, is more susceptible to fluconazole at 37°C ([40]). Therefore, we hypothesized that there might be synergy between 4456dh and fluconazole.
169 different concentrations (0.5mM, 1mM, and 5mM) and one was used as untreated control.
170 tps1/ tps1 deletion mutant was used as a negative control for filamentation in these assays. 10 µl
171 of cell suspension was directly used for imaging the filamentation status of the cells using the
172 Zeiss Axio Scope microscope attached to the Axiocam at 40X magnification. The images were
173 processed using Fiji (8) for the final presentation.
174 Epsilometer Test (E-test)
175 C. neoformans wild type (H99) was incubated in a shaking culture of YPD medium for 18 h at
176 30 °C. The culture was diluted to an OD600 0.6, diluted 10-fold in PBS, and 100 µL was spread
177 onto 60 X 15 mm YPD agar plates prepared with different concentrations of 4456dh. After the […]
190 (Zeiss). The size of the capsule of > 100 cells per 4456dh treatment was quantified using Image […]
247 was measured using a colorimetric glucose assay after treatment of cultures with trehalase. […]
249 Supplemental Figure 11. Quantification of capsule formation in C. neoformans treated with
250 4456dh. Images taken were analyzed with ImageJ. […]
251 were analyzed. […]

## Cn1cc(-c2csc(NC(=O)Cc3ccccn3)n2)cn1 [Compound 4456dh]
  synergy with fluconazole: detected synergy
